# Assay results reported in patent US12029748B2, “Synergistic composition for maintenance of healthy balance of microflora” (KIMBERLY-CLARK WORLDWIDE, INC., priority 2017, dated 2024).
# Assays:
# [1] = Initial pH screening of the composition; assay type: physicochemical; details: for I pH (initial pH), 0.10%: nitrogen compound 0.10 wt/vol % with 1.0 wt/vol % α methyl-D glucoside in medium; for I pH (initial pH), 0.50%: nitrogen compound 0.50 wt/vol % with 1.0 wt/vol % α methyl-D glucoside in medium; for I pH (initial pH), 1.00%: nitrogen compound 1.00 wt/vol % with 1.0 wt/vol % α methyl-D glucoside in medium
# Text: Each composition in Table 1 went through initial screening measures of solubility and initial pH (“I pH”). […] When a specific concentration of a nitrogen containing compound was insoluble, the initial and final pH (“F pH”) of the combined composition was not measured and accordingly are each marked as “NM.” Additionally, initial pH of the composition was checked as a screening measure. The initial pH was marked as either Low (“L”), High (“H”), or Pass (“P”). A Low initial pH corresponds to an initial pH being less than 5.5, a High initial pH corresponds to an initial pH being greater than 6.5, and a Pass initial pH corresponds to the pH being at or between 5.5-6.5. […] As part of the Therapeutic Effect Protocol, a final pH was also measured after the compositions that were tested against the Lactobacillus and E. coli.
# (§1) All of the ingredients in Table 2 were combined and the pH was adjusted to 6.5. […] To evaluate the effect of various nitrogen containing therapeutic agents on the growth of bacteria, the LAPT-g media, prepared as described above, was supplemented with various nitrogen containing compound therapeutic agents to a final test concentration between 0.1 and 1.0%. As initial screening measures, solubility and initial pH of each composition were checked. If a specific composition was insoluble (as detected by visual indication of precipitates or turbidity), then no further therapeutic efficacy testing was undertaken on that composition. Additionally, if the initial pH of the composition was below 5.5 (“Low”) or was above 6.5 (“High”), then no further therapeutic efficacy testing was undertaken on that composition.
# L. crispatus and E. coli = assay: Therapeutic Effect Protocol: L. crispatus / E. coli co-culture, ratio after 36 hours; assay type: cell-based, Lactobacillus crispatus; E. coli; details: for Therapeutic Efficacy Results (Lactobacillus/E. coli) 0.10%: nitrogen compound 0.10 wt/vol % with 1.0 wt/vol % α methyl-D glucoside (10:1); for Therapeutic Efficacy Results (Lactobacillus/E. coli) 0.10% / Therapeutic Efficacy Results (Lactobacillus/E. coli) 0.50% / Therapeutic Efficacy Results (Lactobacillus/E. coli) 1.00%: 36 hours anaerobic co-culture, 37° C.; for Therapeutic Efficacy Results (Lactobacillus/E. coli) 0.50%: nitrogen compound 0.50 wt/vol % with 1.0 wt/vol % α methyl-D glucoside (2:1); for Therapeutic Efficacy Results (Lactobacillus/E. coli) 1.00%: nitrogen compound 1.00 wt/vol % with 1.0 wt/vol % α methyl-D glucoside (1:1); for Therapeutic effect (ratio of Lactobacillus to E. coli greater than 2) at each concentration tested / Therapeutic effect when ratio α methyl-D glucoside : nitrogen compound is less than 2:1 (1:1) / Therapeutic effect when ratio α methyl-D glucoside : nitrogen compound is at least about 2:1, but not at 1:1 / Therapeutic effect at ratio 2:1 and 10:1, but not at 1:1: with α methyl-D glucoside; for Therapeutic effect (ratio of Lactobacillus to E. coli greater than 2) at each concentration tested: nitrogen compound 1 wt/vol %, 0.5 wt/vol % and 0.1 wt/vol %; for Therapeutic effect when ratio α methyl-D glucoside : nitrogen compound is less than 2:1 (1:1): ratio 1:1; for Therapeutic effect when ratio α methyl-D glucoside : nitrogen compound is at least about 2:1, but not at 1:1: ratio at least about 2:1, not 1:1; for Therapeutic effect at ratio 2:1 and 10:1, but not at 1:1: ratios 2:1 and 10:1, not 1:1
# Method: As used herein the term “therapeutic effect” refers to the ability of the compositions and formulations of the present invention to stimulate the growth of Lactobacillus relative E. coli measured according to the Therapeutic Effect Protocol described below. Generally, therapeutic effect is expressed as a ratio of Lactobacillus to E. coli and is desirably greater than about 2, more preferably greater than about 20 and more desirably greater than about 100.
# The data in Table 1 was tested according to the Therapeutic Effect Protocol as described further herein. The nitrogen compounds were tested for their therapeutic efficacy at three different concentrations when combined with α methyl-D glucoside (1% wt/vol %). The concentrations of the nitrogen containing compounds that were tested were 1% wt/vol %, 0.5% wt/vol %, and 0.1% wt/vol %.
# Colonies of L. crispatus and E. coli were prepared as follows. A colony of L. crispatus was transferred to 7 ml de Man, Rogosa & Sharpe (MRS) broth and incubated anaerobically (using BD GasPak EZ anaerobe container system with indicator) at 37° C. without shaking for 18-20 hours. A colony of E. coli was transferred to 5 ml Tryptic Soy Broth (TSB) and incubated aerobically (shaking at 100 rpm) at 37° C. for 18-20 hours.
# Colonies were then inoculated as follows. Bacterial cultures were gently vortexed and 1 mL of each culture was transferred to a corresponding 2.0 mL micro-centrifuge tube and then centrifuged for two minutes at 14,500 rpm. The cultural supernatant was removed and the cell pellet was re-suspended in 1 mL of 0.95% (wt/vol %) saline. […] For L. crispatus, the pellet was re-suspended in 1 mL of 0.95% saline to achieve ˜10^7-10^8 cfu/mL. For E. coli, the pellet was re-suspended in 1 mL of 0.95% saline to achieve ˜10^8-10^9 cfu/mL.
# Media were prepared as follows.
# as §1
# Five milliliters (5 mL) of each medium was transferred to a test tube in duplicates for subsequent inoculation. A master mixture of L. crispatus and E. coli, prepared as described above, was prepared in 1,000:1 ratio. Each (5 ml) test tube was inoculated with the master mixture to give 10^5-10^6 total CFU L. crispatus and 100-1,000 total CFU E. coli per tube.
# To establish a negative control, one tube was vortexed and 100 μL was removed to determine the initial cell concentrations by serial dilutions and plating (2 plates per dilution). L. crispatus is selected on MRS agar plates incubated anaerobically at 37° C. for two days. E. coli is selected on TSA plates incubated aerobically at 37° C. for one day. The co-cultures were incubated in an anaerobic container with BD GasPaks at 37° C. for 36 hours.
# The effect of the α methyl-D glucoside and the nitrogen containing compound therapeutic agents on the ratio of L. crispatus to E. coli was measured 36 hours after inoculation and a final pH of the test solutions was recorded. The co-culture tube was vortexed and 100 μL was removed to determine the final cell concentrations by serial dilutions and plating (2 plates per dilution). L. crispatus is selected on MRS agar plates incubated anaerobically at 37° C. for two days.
SMILES,"I pH (initial pH), 0.10% [1]","I pH (initial pH), 0.50% [1]","I pH (initial pH), 1.00% [1]",Therapeutic Efficacy Results (Lactobacillus/E. coli) 0.10% (L. crispatus and E. coli),Therapeutic Efficacy Results (Lactobacillus/E. coli) 0.50% (L. crispatus and E. coli),Therapeutic Efficacy Results (Lactobacillus/E. coli) 1.00% (L. crispatus and E. coli),Therapeutic effect (ratio of Lactobacillus to E. coli greater than 2) at each concentration tested (L. crispatus and E. coli),Therapeutic effect when ratio α methyl-D glucoside : nitrogen compound is less than 2:1 (1:1) (L. crispatus and E. coli),"Therapeutic effect when ratio α methyl-D glucoside : nitrogen compound is at least about 2:1, but not at 1:1 (L. crispatus and E. coli)","Therapeutic effect at ratio 2:1 and 10:1, but not at 1:1 (L. crispatus and E. coli)"
C[C@@H](N)C(=O)O [D-Alanine],P (a Pass initial pH corresponds to the pH being at or between 5.5-6.5),P (a Pass initial pH corresponds to the pH being at or between 5.5-6.5),P (a Pass initial pH corresponds to the pH being at or between 5.5-6.5),1.10E+06,>1.30E+04,60,provided a therapeutic effect,provided a therapeutic effect,,
NC(=O)C[C@@H](N)C(=O)O [D-Asparagine],P (a Pass initial pH corresponds to the pH being at or between 5.5-6.5),P (a Pass initial pH corresponds to the pH being at or between 5.5-6.5),P (a Pass initial pH corresponds to the pH being at or between 5.5-6.5),>3410,6.00E+06,72,provided a therapeutic effect,provided a therapeutic effect,,
Cl.N[C@H]1C(O)O[C@H](CO)[C@H](O)[C@@H]1O (stereo partly drawn) [D-Galactosamine HCL],P (a Pass initial pH corresponds to the pH being at or between 5.5-6.5),P (a Pass initial pH corresponds to the pH being at or between 5.5-6.5),P (a Pass initial pH corresponds to the pH being at or between 5.5-6.5),6.72,>1220,1.29,,,provided a therapeutic effect,provided a therapeutic effect
Cl.N[C@H]1C(O)O[C@H](CO)[C@@H](O)[C@@H]1O (stereo partly drawn) [D-Glucosamine HCL],P (a Pass initial pH corresponds to the pH being at or between 5.5-6.5),P (a Pass initial pH corresponds to the pH being at or between 5.5-6.5),P (a Pass initial pH corresponds to the pH being at or between 5.5-6.5),77.8,6.00E+06,454,provided a therapeutic effect,provided a therapeutic effect,,
NC(=O)[C@H]1O[C@@H](O)[C@H](O)[C@@H](O)[C@@H]1O [D-glucoronamide],P (a Pass initial pH corresponds to the pH being at or between 5.5-6.5),P (a Pass initial pH corresponds to the pH being at or between 5.5-6.5),P (a Pass initial pH corresponds to the pH being at or between 5.5-6.5),>122,6.84E+03,1.6,,,provided a therapeutic effect,provided a therapeutic effect
